The values that follow come from ChEMBL document CHEMBL1201862, “PubChem BioAssay data set” (2004).

Test systems include A549; EKVX; HCT-15; HOP-62; HT-29; IGROV-1; LOX IMVI; MOLT-4; NCI-H460; OVCAR-5; OVCAR-8; SF-268; SK-MEL-28; SK-MEL-5; SNB-19; SW-620; U-251; UACC-62; UO-31; COLO 205.
Common to all, as to assay: NCI-60 cell line screen, 48 h

Structures are written as SMILES.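 A five-concentration, 48-hour dose response in 96-well plates underlies each endpoint, interpolated linearly between surrounding concentrations. At the GI50, growth is halved.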 Active and inactive are the calls of the source. Cut-off read from the data, not from the text of the source: active = GI50 up to about 1.1 µM and inactive = higher.

With `O=[N+]([O-])c1ccc(Nc2nc3ccccc3s2)cc1`, the GI50 with A549 is 47.6 µM (inactive); in the assay on EKVX, 18.7 µM (inactive); in the assay on HCT-15, 28.8 µM; with HOP-62, 29.2 µM (inactive); in the assay with HT-29, 34.6 µM (inactive); in the assay on IGROV-1, 3.94 µM (inactive). Further, the GI50 with LOX IMVI is 14.9 µM (inactive); in the assay on MOLT-4, 8.36 µM (inactive); with NCI-H460 it was 29.4 µM (inactive); with OVCAR-5, 23 µM (inactive); in the assay on OVCAR-8, 40.7 µM (inactive); in the assay with SF-268, 26.3 µM (inactive). Further, the GI50 is 46.2 µM (inactive) with SK-MEL-28; 21.6 µM (inactive) in the assay with SK-MEL-5; 38.5 µM (inactive) in the assay with SNB-19; 35 µM (inactive) with SW-620; 17.3 µM (inactive) in the assay with U-251; 20.2 µM (inactive) with UACC-62. Moreover, the GI50 in the assay on UO-31 was 18.5 µM (inactive).
Consider `COc1ccccc1C1C(C(=O)O)=C(CO)Oc2cc3c(cc21)OCO3` (stereo not drawn), for which the GI50 is > 100 µM (inactive) in the assay on COLO 205; > 100 µM (inactive) with EKVX; more than 100 µM in the assay on HCT-15; > 100 µM (inactive) in the assay on HT-29; > 100 µM (inactive) in the assay on IGROV-1; > 100 µM (inactive) with LOX IMVI. Besides, the GI50 with MOLT-4, with NCI-H460, with OVCAR-8, in the assay on SF-268, with SK-MEL-28 and with SK-MEL-5 was > 100 µM (inactive) throughout. In addition, the GI50 with SNB-19, in the assay on SW-620, in the assay on U-251, in the assay on UACC-62 and in the assay on UO-31 was > 100 µM (inactive) throughout.
As to `CN(C)C(=S)SCc1ccccc1`, the GI50 was > 100 µM (inactive) in the assay with A549; > 100 µM (inactive) in the assay on COLO 205; > 100 µM (inactive) in the assay on EKVX; more than 100 µM with HCT-15; > 100 µM (inactive) in the assay with HOP-62; > 100 µM (inactive) in the assay with HT-29. In addition, the GI50 in the assay with IGROV-1, in the assay on LOX IMVI, with NCI-H460, in the assay with OVCAR-5, in the assay on OVCAR-8 and in the assay with SF-268 was > 100 µM (inactive) each time. For the same compound, the GI50 in the assay on SK-MEL-28, in the assay on SK-MEL-5, in the assay with SNB-19, in the assay on SW-620, in the assay on U-251 and in the assay with UACC-62 was > 100 µM (inactive) throughout. For the same compound, the GI50 with UO-31 is 53.7 µM (inactive).
Consider `C[N+](C)(N)c1nc(N)c(C#N)c(C#N)c1C#N`, for which the GI50 was > 10 µM (inactive) with A549; > 10 µM (inactive) in the assay with COLO 205; > 10 µM (inactive) with EKVX; more than 10 µM with HCT-15; > 10 µM (inactive) with HOP-62; > 10 µM (inactive) with HT-29. For the same compound, the GI50 in the assay with IGROV-1, in the assay on LOX IMVI, in the assay with MOLT-4, in the assay on NCI-H460, in the assay with OVCAR-5 and in the assay with OVCAR-8 was > 10 µM (inactive) each time. Further, the GI50 with SF-268, in the assay with SK-MEL-28, in the assay with SK-MEL-5, in the assay on SNB-19, in the assay with SW-620 and with U-251 was > 10 µM (inactive) throughout. In addition, the GI50 in the assay with UACC-62 and in the assay with UO-31 was > 10 µM (inactive) in each case.
In the case of `CCCOC(=O)CCC(NC(=O)c1ccc(Nc2nc3ccccc3nc2-c2cccs2)cc1)C(=O)OCCC` (stereo not drawn), the GI50 was > 100 µM (inactive) in the assay with A549; > 100 µM (inactive) in the assay with COLO 205; > 100 µM (inactive) in the assay with EKVX; more than 100 µM in the assay on HCT-15; > 100 µM (inactive) in the assay with HOP-62; 55.1 µM (inactive) with IGROV-1. For the same compound, the GI50 was > 100 µM (inactive) in the assay with LOX IMVI; 2.31 µM (inactive) with MOLT-4; 56 µM (inactive) in the assay on OVCAR-5; > 100 µM (inactive) in the assay with OVCAR-8; > 100 µM (inactive) with SF-268; > 100 µM (inactive) in the assay with SK-MEL-28. The GI50 in the assay on SK-MEL-5 is 72.1 µM (inactive); in the assay with SNB-19, > 100 µM (inactive); with SW-620 it was > 100 µM (inactive); in the assay on U-251, > 100 µM (inactive); with UACC-62 it was 41.7 µM (inactive); in the assay on UO-31 it was 95.9 µM (inactive).
As for `Cc1cccc2c1Sc1ccccc1C2NC(=O)CN(C)C` (stereo not drawn), the GI50 in the assay with A549 was > 100 µM (inactive); in the assay with COLO 205 it was > 100 µM (inactive); in the assay on EKVX, > 100 µM (inactive); in the assay on HCT-15, more than 100 µM; in the assay on HOP-62 it was > 100 µM (inactive); in the assay on HT-29, 69.2 µM (inactive). Besides, the GI50 in the assay with IGROV-1 is > 100 µM (inactive); in the assay on LOX IMVI, > 100 µM (inactive); in the assay with MOLT-4 it was 59.7 µM (inactive); with NCI-H460, > 100 µM (inactive); in the assay on OVCAR-5, > 100 µM (inactive); in the assay on OVCAR-8, > 100 µM (inactive). Moreover, the GI50 with SF-268 is > 100 µM (inactive); with SK-MEL-28, 52.4 µM (inactive); in the assay on SK-MEL-5 it was 36.1 µM (inactive); in the assay with SNB-19 it was > 100 µM (inactive); with SW-620, > 100 µM (inactive); in the assay on U-251, > 100 µM (inactive). Moreover, the GI50 is > 100 µM (inactive) with UACC-62 and 33.6 µM (inactive) with UO-31.
For `Nc1nc(=S)[nH]c2nc3c(c(-c4ccccc4)c12)CCCC3`, the GI50 in the assay with A549 was > 100 µM (inactive); in the assay on COLO 205 it was > 100 µM (inactive); in the assay with EKVX, 50 µM (inactive); in the assay with HCT-15, more than 100 µM; in the assay on HOP-62 it was > 100 µM (inactive); with HT-29 it was > 100 µM (inactive). Moreover, the GI50 in the assay on IGROV-1, with LOX IMVI, with MOLT-4, in the assay with NCI-H460, with OVCAR-5 and with OVCAR-8 was > 100 µM (inactive) each time. Moreover, the GI50 with SF-268, in the assay on SK-MEL-5, in the assay on SNB-19, in the assay on SW-620, in the assay with U-251 and in the assay with UACC-62 was > 100 µM (inactive) each time. For the same compound, the GI50 with UO-31 was > 100 µM (inactive).
On to `C=CC(Br)(CBr)CCC(Cl)C(C)C` (stereo not drawn), for which the GI50 in the assay with A549 was 4.69 µM (inactive); with COLO 205, 3.38 µM (inactive); in the assay on EKVX, 9.66 µM (inactive); in the assay with HOP-62 it was 1.8 µM (inactive); in the assay on HT-29, 1.66 µM (inactive); in the assay with IGROV-1, 2.5 µM (inactive). The GI50 is 1.15 µM (inactive) in the assay with LOX IMVI; 1.06 µM (active) in the assay on MOLT-4; 1.88 µM (inactive) with NCI-H460; 2.44 µM (inactive) in the assay with OVCAR-5; 1.56 µM (inactive) with SF-268; 1.58 µM (inactive) with SK-MEL-28. In addition, the GI50 with SK-MEL-5 was 1.85 µM (inactive); in the assay on SNB-19, 2.2 µM (inactive); with SW-620 it was 1.69 µM (inactive); in the assay with U-251, 1.66 µM (inactive); in the assay with UACC-62, 1.5 µM (inactive); in the assay with UO-31, 1.64 µM (inactive).
With `O=Cc1c(Br)[nH]c2ccccc12`, the GI50 in the assay on A549 was > 100 µM (inactive); with COLO 205, 97.9 µM (inactive); in the assay with EKVX, > 100 µM (inactive); with HCT-15, more than 100 µM; in the assay on HOP-62 it was > 100 µM (inactive); in the assay with HT-29 it was > 100 µM (inactive). Further, the GI50 with IGROV-1 is > 81.1 µM (inactive); in the assay with LOX IMVI, 71.6 µM (inactive); in the assay on MOLT-4 it was 27 µM (inactive); with NCI-H460 it was > 100 µM (inactive); with OVCAR-5, > 91.4 µM (inactive); with OVCAR-8, > 100 µM (inactive). Further, the GI50 in the assay on SF-268 is > 100 µM (inactive); in the assay on SK-MEL-28, > 100 µM (inactive); with SK-MEL-5 it was 45.4 µM (inactive); in the assay on SW-620, > 100 µM (inactive); in the assay on U-251 it was 89.3 µM (inactive); in the assay on UACC-62, 47 µM (inactive). Moreover, the GI50 in the assay with UO-31 is 39.9 µM (inactive).
Turning to `COc1ccc(NC2=NCCO2)c2ccccc12`, the GI50 was > 10 µM (inactive) with A549; > 10 µM (inactive) with COLO 205; > 10 µM (inactive) with EKVX; more than 10 µM with HCT-15; > 10 µM (inactive) in the assay on HOP-62; > 10 µM (inactive) in the assay with HT-29. Further, the GI50 in the assay with IGROV-1, in the assay with LOX IMVI, with MOLT-4, in the assay on NCI-H460, with OVCAR-5 and with OVCAR-8 was > 10 µM (inactive) throughout. The GI50 in the assay with SF-268, with SK-MEL-28, in the assay on SK-MEL-5, in the assay on SNB-19, with SW-620 and with UACC-62 was > 10 µM (inactive) throughout. The GI50 in the assay on UO-31 was > 10 µM (inactive).
As to `O=C(NCCCNC(=O)c1ccc2cc(O)c(O)cc2c1)c1ccc2cc(O)c(O)cc2c1`, the GI50 with A549 is 69.8 µM (inactive); in the assay with COLO 205 it was 30.7 µM (inactive); with EKVX, 27.9 µM (inactive); in the assay with HCT-15 it was 19.9 µM; with HOP-62 it was 25.1 µM (inactive); in the assay with HT-29 it was 23.4 µM (inactive). Further, the GI50 in the assay on IGROV-1 is 35.6 µM (inactive); in the assay with LOX IMVI, 24.2 µM (inactive); with MOLT-4, 30 µM (inactive); in the assay on NCI-H460, 34 µM (inactive); in the assay with OVCAR-5, 63 µM (inactive); in the assay on OVCAR-8, 35.2 µM (inactive). Besides, the GI50 in the assay with SF-268 is 28.8 µM (inactive); in the assay on SK-MEL-28, 40.4 µM (inactive); with SK-MEL-5 it was 22.8 µM (inactive); in the assay with SNB-19 it was 18.3 µM (inactive); in the assay on SW-620, 43 µM (inactive); in the assay with U-251 it was 21.9 µM (inactive). Besides, the GI50 in the assay with UACC-62 was 20 µM (inactive); in the assay on UO-31 it was 34.1 µM (inactive).
